Laboratory results published in patent US9567336B2, “Conjugated TLR7 and/or TLR8 and TLR2 agonists” (CAYLA, priority 2012, dated 2017).

Tests used:
murine TLR7 = target: T1, murine TLR7 (Mus musculus, UniProt P58681); experiment: HEK-Blue mTLR7 NF-κB/AP-1 SEAP reporter cell assay; format: cell-based; settings: HEK-Blue mTLR7 reporter cells, 10 μg/mL to 10 pg/ml, 24 hours, OD at 655 nm; FIGS. 2A, 2B
T1 construct: host or cells: HEK293 (HEK-Blue mTLR7)
T1 sequence (P58681 27-1050): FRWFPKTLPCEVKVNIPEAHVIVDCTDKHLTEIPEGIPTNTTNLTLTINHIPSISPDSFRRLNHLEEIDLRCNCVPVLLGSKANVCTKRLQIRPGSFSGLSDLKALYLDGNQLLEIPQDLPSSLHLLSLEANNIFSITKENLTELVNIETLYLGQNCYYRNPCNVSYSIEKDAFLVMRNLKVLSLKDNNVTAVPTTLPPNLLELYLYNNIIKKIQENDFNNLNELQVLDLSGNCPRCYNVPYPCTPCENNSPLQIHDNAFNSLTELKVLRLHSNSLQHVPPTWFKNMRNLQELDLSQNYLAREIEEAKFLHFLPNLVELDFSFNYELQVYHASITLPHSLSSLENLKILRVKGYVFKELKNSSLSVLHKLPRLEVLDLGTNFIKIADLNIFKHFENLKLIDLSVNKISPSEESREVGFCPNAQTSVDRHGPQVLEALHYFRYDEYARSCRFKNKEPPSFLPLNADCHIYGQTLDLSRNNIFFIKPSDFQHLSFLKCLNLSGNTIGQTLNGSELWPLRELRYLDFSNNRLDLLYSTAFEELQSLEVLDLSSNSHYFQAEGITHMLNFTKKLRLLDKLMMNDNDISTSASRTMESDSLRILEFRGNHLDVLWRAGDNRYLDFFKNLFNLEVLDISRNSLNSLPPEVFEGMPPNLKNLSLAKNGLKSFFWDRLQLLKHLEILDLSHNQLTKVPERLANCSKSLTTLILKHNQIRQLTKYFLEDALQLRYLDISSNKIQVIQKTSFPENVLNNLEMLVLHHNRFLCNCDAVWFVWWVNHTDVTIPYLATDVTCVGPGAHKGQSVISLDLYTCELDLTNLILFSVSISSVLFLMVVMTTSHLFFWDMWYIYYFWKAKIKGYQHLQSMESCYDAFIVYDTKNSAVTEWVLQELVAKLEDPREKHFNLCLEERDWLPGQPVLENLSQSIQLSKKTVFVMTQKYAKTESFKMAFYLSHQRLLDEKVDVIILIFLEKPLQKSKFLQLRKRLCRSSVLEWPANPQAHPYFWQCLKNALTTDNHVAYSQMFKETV
Description: (§1) Some conjugated compounds of the invention were tested for their ability to activate TLR7 and TLR2 receptor signaling. Cell-based assays were carried out using TLR7 and TLR2 reporter cell lines (InvivoGen). The reporter cell lines are engineered HEK293 cells, a human embryonic kidney cell line (ATCC, CRL-1573) that stably express either murine TLR7 (HEK-Blue™ mTLR7) or human TLR7 (HEK-Blue™ hTLR7) or murine TLR2 (HEK-Blue™ mTLR2) or human TLR2 (HEK-Blue™ hTLR2) with an NF-κB-inducible secreted embryonic alkaline phosphatase (SEAP) as the reporter gene. The SEAP reporter gene is placed under the control of the NF-κB and AP-inducible promoter. Stimulation with the corresponding TLR ligand activates NF-κB and AP-1, which induces the production of SEAP. Detection of SEAP is measured following culturing cells in HEK-Blue™ Detection media (InvivoGen). HEK-Blue™ Detection contains a SEAP substrate, which upon hydrolysis by SEAP produces a colorimetric change allowing for detection of SEAP as the protein is secreted. […] These assays were carried out using RAW-Blue™ Cells (InvivoGen), derived from RAW 264.7 mouse leukemic monocytic macrophage cell line (ATCC, CRL 2278) stably overexpressing a NF-κB/AP-1 inducible SEAP reporter constructs.
(§2) To perform the assay, cells were seeded on 96 well microliter plates at 50,000 or 100,000 cells per well for HEK-Blue™ Cells and RAW-Blue™ Cells respectively, and cultured at 37° C. in the presence of the conjugated compounds. The conjugated compounds were prepared as follows: First, stock solutions of the small molecule conjugated compounds of the invention were prepared in ethanol or water to a concentration of 10 mg/ml. A working dilution of the conjugated TLR7-TLR2 small molecules was made up in water and added to cells at a final range of concentrations from 10 μg/mL to 10 pg/ml. The working dilutions of the conjugated TLR7-TLR2 small molecules as the stated concentrations were directly added to the reporter cell lines and incubated at 37° C. for 24 hours. After 24 hours of incubation, the effect on reporter gene activity was determined by reading the OD at 655 nm using iMark™ Microplate Reader (BIO-RAD).
(§3) The conjugated compounds were tested alone for their ability to specifically activate TLR7 and TLR2, alongside the known TLR7 activators R848 or CL264 (InvivoGen) and the TLR2 agonists Pam2CSK4 or Pam3CSK4 (InvivoGen). The specificity of the TLR activity was determined by use of reporter cell lines to the other TLRs (data not shown). […] The molecules show a tendency to activate mouse TLR7 with greater sensitivity than human TLR7. […] Furthermore, dose-dependent responses of the conjugated compounds indicate significant TLR activities of TLR7 and TLR2 compared to the corresponding controls.

murine TLR2 = target: T2, murine TLR2 (Mus musculus, UniProt Q9QUN7); experiment: HEK-Blue mTLR2 NF-κB/AP-1 SEAP reporter cell assay; format: cell-based; settings: HEK-Blue mTLR2 reporter cells, 10 μg/mL to 10 pg/ml, 24 hours, OD at 655 nm; FIG. 4
T2 construct: host or cells: HEK293 (HEK-Blue mTLR2)
T2 sequence (Q9QUN7 25-784): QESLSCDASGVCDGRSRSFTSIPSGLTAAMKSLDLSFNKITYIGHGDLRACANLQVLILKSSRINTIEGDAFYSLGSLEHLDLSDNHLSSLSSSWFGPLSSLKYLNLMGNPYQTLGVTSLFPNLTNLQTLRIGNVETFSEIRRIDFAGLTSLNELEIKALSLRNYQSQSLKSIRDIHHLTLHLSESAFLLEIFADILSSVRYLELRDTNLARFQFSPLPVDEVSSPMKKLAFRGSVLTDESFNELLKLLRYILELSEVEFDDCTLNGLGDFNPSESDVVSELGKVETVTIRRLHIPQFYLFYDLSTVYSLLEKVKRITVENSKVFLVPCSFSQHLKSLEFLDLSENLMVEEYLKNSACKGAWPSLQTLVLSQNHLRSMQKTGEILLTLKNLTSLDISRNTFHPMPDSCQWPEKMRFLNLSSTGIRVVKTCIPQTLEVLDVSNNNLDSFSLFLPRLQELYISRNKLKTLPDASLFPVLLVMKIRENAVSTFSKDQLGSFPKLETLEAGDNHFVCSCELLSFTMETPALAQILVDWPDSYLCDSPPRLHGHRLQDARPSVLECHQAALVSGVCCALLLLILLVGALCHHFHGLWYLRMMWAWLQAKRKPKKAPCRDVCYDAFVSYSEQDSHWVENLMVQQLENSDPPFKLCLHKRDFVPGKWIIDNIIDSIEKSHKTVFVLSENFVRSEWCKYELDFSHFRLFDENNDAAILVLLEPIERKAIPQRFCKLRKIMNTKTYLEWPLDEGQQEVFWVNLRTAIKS
Description: as §1, §2, §3

B16-F1 cells = experiment: B16-F1 allograft tumor mouse model, intra-tumoral injections; format: in vivo, C57BL/6 mice; settings: 3 intra-tumoral injections
Description: To investigate whether administering in vivo a therapeutically effective amount of a composition concerned by the invention into a tumor environment affects tumor growth, C57BL/6 mice (Janvier S.A.S.) were shaved (on their backs) and were injected subcutaneously with approximately 50 μl (5×10^5) of viable B16-F1 cells (ATCC, CRL-6323) under anesthesia, using 7 mice per group. Once the tumor volume reached about 5 mm in diameter, around day 7 after tumor cells were grafted, the mice were divided into 2 groups. A first group (control) received intra-tumoral injections of vehicle (Glucose 5% ethanol 8% that is often used to facilitate drug solubilization and so enhance delivery), for a total of 3 injections. All animal work was carried out at the animal facility at the Institut de Pharmacologie et de Biologie Structurale (IPBS) in Toulouse, in accordance with institutional guidelines. […] By day 51 following the tumor cell graft, 60% of mice in the CL401 conjugated TLR7-TLR2 small molecule treated group were still alive. In contrast, by day 26, there was no survival of mice from the control group of vehicle treated. Tumor growth was monitored and measured with calipers after day 5 of grafting tumor cells into mice and then every 2 days after. […] Tumor volume in mm^3 was determined according to the formula V=W^2×L/2, where L=length (mm) and W=width (mm)

For `CCCCCCCCCCCCCCCC(=O)OCC(CSC[C@H](N)C(=O)Nc1ccc(Cn2c(O)nc3c(N)nc(NCCCC)nc32)cc1)OC(=O)CCCCCCCCCCCCCCC` (mixture of isomers) [CL401, (R)-3-(2-amino-3-(4-((6-amino-2-(butylamino)-8-hydroxy-9H-purin-9-yl)methyl)phenylamino)-3-oxopropylthio)propane-1,2-diyl dipalmitate], the “ability to activate TLR7 receptors (murine TLR7)” value (murine TLR7) was “activate TLR7 receptors”, the “ability to activate TLR2 receptor (murine TLR2)” value (murine TLR2) was “activate TLR2 receptor” and the “mice still alive (survival)” value (B16-F1 cells; by day 51 following the tumor cell graft, FIG. 6B) was 60%. For the same compound, the tumor growth (B16-F1 cells; compared to vehicle control mice, FIG. 6A) was “significantly reduced”.
